The source of these data is patent US12673936B2, “Isoindolinone compounds, and uses thereof” (HANGZHOU GLUBIO PHARMACEUTICAL CO., LTD., priority 2021, dated 2026).

Molecules are shown by their SMILES. Like-named read-outs stand apart in the source and are kept apart here.

What all share (format): cell-based
One test has as its target HiBiT tagged GSPT1 (Homo sapiens, UniProt P15170+Q96SW2). Description: GSPT1 degradation assay (HiBiT assay). Conditions: 20 hours, maximum GSPT1 degradation; for HiBiT GSPT1: Dmax: HT-1080 cells; for Dmax: HT-1080, HT-1080 cells. Put shortly:
(§1)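 HT-1080 cells stably expressing wild-type CRBN, GSPT1A(1-138)/G575N and HiBiT-tagged CK1α or GSPT1, ~10,000/well, treated with compound from 3.162×10^-4 μM to 10 μM (3.16-fold steps). HiBiT luminescence normalized to DMSO as percent of control.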
(With HiBiT, luminescence reflects the tagged protein that the partner subunit can reach.)

For the next test, the system named is MV4-11 cells. In words: MV4-11 cell proliferation assay (CTG cell viability). Conditions: 120 hours, read-out: CTG cell viability assay_MV4-11: IC50. As to the method:
MV4-11 Cell Proliferation Assay
The following is an example of an assay that can be used to determine the dose-dependent, anti-proliferative activity of CK1α degradating compounds in an AML cell line such as MV4-11 (ATCC Cat #CRL-9591).
MV4-11 cells were seeded into a 384-well plate (Cat #3764, Corning) pre-spotted with DMSO or test compounds. Increasing concentrations of test compounds (ranging from 1×10^−3 μM to 10 μM at a 3.162-fold increment in a 10-point dose response assay; ranging from 3.162×10^−4 μM to 10 μM at a 3.162-fold increment in a 11-point dose response assay) or DMSO were dispensed into an empty 384-well plate using an a D300e digital dispenser (Tecan) or an Echo Acoustic Liquid Handler (Beckman Coulter). About 2,000 cells in 50 μL of culture media (IMDM plus 10% heat-inactivated FBS) were seeded per well. Assay plates were incubated at 37° C. with 5% CO2 for 120 hours. After that, 20 μL of the CellTiter-Glo Luminescent Cell Viability Assay Reagent (Cat #G7573, Promega) was added to each well and incubated at room temperature for 30 minutes. Luminescence was then measured with an EnVision plate reader (PerkinElmer) or a PHERAstar plate reader (BMG LABTECH). All cell growth inhibition curves were processed using Collaborative Drug Discovery Vault softwares (Burlingame, CA, www.collaborativedrug.com).
Cell viability reads in compound-treated wells were normalized to that of DMSO control and expressed as Percent of Control (PoC, y). A four Parameter Logistic Model was used to determine the compound's EC50 and DC50, using the following equation:
[formula] • A==lowest cell viability read normalized to DMSO control in response to compound treatment, as determined by curve fit • B=cell viability read in DMSO control • C=EC50 • D=Hill Slope • x=compound concentration • EC50=the concentration of compound when y=(B−A)/2 • IC50=the concentration of the compound when y=50% of DMSO control • y=cell viability read normalized to DMSO control Ymin=(A/B)*100% • Ymin represents the lowest cell viability % that can be achieved by the compound treatment in the assay.

The target of another test is HiBiT tagged CK1α (Homo sapiens, UniProt P48729+Q96SW2). In words: CK1α degradation assay (HiBiT assay). Particulars: 20 hours; for DC50 / HiBiT CK1α: Dmax: HT-1080 cells; for DC50: concentration at 50% CK1α degradation; for HiBiT CK1α: Dmax / Dmax: maximum CK1α degradation; for Dmax: HT-1080, HT-1080 cells. Put shortly: as §1
Sequence of HiBiT tagged CK1α (P48729 whole entry): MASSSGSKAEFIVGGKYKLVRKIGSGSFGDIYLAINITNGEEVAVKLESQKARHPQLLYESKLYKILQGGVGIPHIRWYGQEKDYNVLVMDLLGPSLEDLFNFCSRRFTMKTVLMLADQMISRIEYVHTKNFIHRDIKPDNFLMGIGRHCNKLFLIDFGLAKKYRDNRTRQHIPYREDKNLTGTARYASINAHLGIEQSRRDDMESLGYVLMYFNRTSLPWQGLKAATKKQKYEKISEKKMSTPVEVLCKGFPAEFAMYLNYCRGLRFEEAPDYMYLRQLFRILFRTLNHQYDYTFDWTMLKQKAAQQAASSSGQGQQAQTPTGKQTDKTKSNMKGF
Sequence of HiBiT tagged CK1α (Q96SW2 whole entry): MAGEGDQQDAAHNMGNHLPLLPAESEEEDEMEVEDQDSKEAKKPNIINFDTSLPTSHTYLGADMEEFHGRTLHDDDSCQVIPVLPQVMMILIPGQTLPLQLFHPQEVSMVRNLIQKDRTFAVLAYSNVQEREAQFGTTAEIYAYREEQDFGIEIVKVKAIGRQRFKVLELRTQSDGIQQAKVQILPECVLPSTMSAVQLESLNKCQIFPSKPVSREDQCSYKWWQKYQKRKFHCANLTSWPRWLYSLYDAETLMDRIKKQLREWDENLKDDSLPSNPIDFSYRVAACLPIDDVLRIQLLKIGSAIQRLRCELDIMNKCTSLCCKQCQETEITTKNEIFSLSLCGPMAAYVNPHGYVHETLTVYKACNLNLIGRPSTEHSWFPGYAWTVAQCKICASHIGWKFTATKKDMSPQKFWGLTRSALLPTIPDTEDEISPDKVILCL
Sequence of HiBiT tagged CK1α (Q16531 whole entry partner): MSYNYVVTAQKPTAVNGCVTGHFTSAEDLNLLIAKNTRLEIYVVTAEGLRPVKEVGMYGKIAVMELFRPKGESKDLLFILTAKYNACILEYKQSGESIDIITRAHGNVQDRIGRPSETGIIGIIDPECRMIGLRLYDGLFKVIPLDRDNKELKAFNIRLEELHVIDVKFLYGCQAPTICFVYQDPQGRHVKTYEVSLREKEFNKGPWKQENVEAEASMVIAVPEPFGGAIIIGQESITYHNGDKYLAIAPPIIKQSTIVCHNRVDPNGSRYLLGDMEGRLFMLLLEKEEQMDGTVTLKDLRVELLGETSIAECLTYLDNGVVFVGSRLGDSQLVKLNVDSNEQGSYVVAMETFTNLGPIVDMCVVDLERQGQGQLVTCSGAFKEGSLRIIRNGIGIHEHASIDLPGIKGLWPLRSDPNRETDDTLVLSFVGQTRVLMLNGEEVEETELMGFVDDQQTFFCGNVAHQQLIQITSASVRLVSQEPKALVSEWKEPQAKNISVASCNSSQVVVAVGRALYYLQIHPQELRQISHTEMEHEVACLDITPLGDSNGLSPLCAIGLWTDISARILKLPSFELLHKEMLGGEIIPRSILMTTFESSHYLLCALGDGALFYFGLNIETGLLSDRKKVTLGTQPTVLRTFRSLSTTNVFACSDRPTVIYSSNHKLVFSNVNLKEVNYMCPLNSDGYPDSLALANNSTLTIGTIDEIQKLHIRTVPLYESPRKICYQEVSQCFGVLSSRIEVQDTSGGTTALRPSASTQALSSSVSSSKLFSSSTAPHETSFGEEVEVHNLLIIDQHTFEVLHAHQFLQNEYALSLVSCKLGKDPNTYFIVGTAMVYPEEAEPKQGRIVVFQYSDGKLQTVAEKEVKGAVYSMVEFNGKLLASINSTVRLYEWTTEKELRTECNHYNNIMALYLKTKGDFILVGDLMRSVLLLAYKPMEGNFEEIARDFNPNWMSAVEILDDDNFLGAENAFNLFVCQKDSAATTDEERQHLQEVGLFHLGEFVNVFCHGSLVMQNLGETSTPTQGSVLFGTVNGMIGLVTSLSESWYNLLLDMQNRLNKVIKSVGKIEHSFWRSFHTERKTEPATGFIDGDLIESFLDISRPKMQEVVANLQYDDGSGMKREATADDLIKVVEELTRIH

Sequence of HiBiT tagged GSPT1 (P15170 whole entry): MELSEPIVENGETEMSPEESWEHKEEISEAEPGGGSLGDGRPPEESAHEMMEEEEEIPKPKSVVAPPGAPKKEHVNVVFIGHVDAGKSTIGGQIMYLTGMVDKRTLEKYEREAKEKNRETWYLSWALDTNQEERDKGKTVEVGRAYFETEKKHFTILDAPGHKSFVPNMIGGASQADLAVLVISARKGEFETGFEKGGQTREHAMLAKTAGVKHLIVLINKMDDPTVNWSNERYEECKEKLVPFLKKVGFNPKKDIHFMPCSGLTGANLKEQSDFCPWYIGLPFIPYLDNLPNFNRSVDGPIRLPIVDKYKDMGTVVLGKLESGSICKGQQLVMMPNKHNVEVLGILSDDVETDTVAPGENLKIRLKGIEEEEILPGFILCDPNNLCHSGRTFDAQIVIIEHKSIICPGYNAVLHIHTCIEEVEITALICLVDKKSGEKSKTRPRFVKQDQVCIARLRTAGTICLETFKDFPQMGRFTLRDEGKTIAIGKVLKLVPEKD
Sequence of HiBiT tagged GSPT1 (Q96SW2 whole entry): as the sequence (Q96SW2 whole entry) above
Sequence of HiBiT tagged GSPT1 (Q16531 whole entry partner): as the sequence (Q16531 whole entry partner) above

As for `O=C1CC[C@@H](N2Cc3cc(C(=O)N[C@H](c4ccc(F)cc4)C4CCC4)ccc3C2=O)C(=O)N1` (relative stereo) [Compound 8, N—((*S)-cyclobutyl(4-fluorophenyl)methyl)-2-((R)-2,6-dioxopiperidin-3-yl)-1-oxoisoindoline-5-carboxamide], the “HiBiT GSPT1: Dmax” value at HiBiT tagged GSPT1 is on record as 23.4%. Also, in the test with MV4-11 cells, the IC50 amounted to 205 nM. On HiBiT tagged CK1α, the half-maximal degradation concentration (DC50) is 160 nM and the “HiBiT CK1α: Dmax” value is reported as 72.9%.
Regarding `O=C1CCC(N2Cc3cc(C(=O)N[C@@H](c4ccc(F)cc4)C4CC(F)(F)C4)ccc3C2=O)C(=O)N1` (single isomer, unassigned) [Compound 5], the results for the maximal degradation (Dmax) at HiBiT tagged GSPT1 and on HiBiT tagged CK1α were 30.3% and 75.9%, respectively. The IC50 in the test on MV4-11 cells (Homo sapiens) worked out at 363 nM.
For `O=C1CCC(N2Cc3cc(C(=O)N[C@H](c4ccc(F)cc4)C4CC(F)(F)C4)ccc3C2=O)C(=O)N1` (single isomer, unassigned) [Compound 6], in that order: 30.1%, 60.9% and 691 nM.
Molecule `O=C1CC[C@H](N2Cc3cc(C(=O)N[C@H](c4ccc(F)cc4)C4CCC4)ccc3C2=O)C(=O)N1` (single isomer, unassigned) [Compound 9, N—((*S)-cyclobutyl(4-fluorophenyl)methyl)-2-((S)-2,6-dioxopiperidin-3-yl)-1-oxoisoindoline-5-carboxamide] registered a Dmax on HiBiT tagged GSPT1 of 22.6%. Moreover, in the test with MV4-11 cells (Homo sapiens), the half-inhibitory concentration (IC50) is 172 nM. Also, on HiBiT tagged CK1α, the maximal degradation (Dmax) was 71.6% and the DC50 is 116 nM.
For `Cn1cc(-c2cccnc2[C@@H](NC(=O)c2ccc3c(c2)CN([C@H]2CCC(=O)NC2=O)C3=O)C2CCC2)cn1` (single isomer, unassigned) [Compound 84, N—((*S)-cyclobutyl(3-(1-methyl-1H-pyrazol-4-yl)pyridin-2-yl)methyl)-2-((S)-2,6-dioxopiperidin-3-yl)-1-oxoisoindoline-5-carboxamide] the same measures were 15.2%, 24 nM, 72.4% and 74.1 nM.
On to `O=C1CCC(N2Cc3cc(C(=O)N[C@H](c4ccc(Cl)cc4)C4CCC4)ccc3C2=O)C(=O)N1` (stereo in doubt) [Compound 36, N-((*S)-(4-chlorophenyl)(cyclobutyl)methyl)-2-(2,6-dioxopiperidin-3-yl)-1-oxoisoindoline-5-carboxamide], for which the maximal degradation (Dmax) at HiBiT tagged GSPT1 is 24.6%; at HiBiT tagged CK1α it was 65.8%. The IC50 in the test on MV4-11 cells (Homo sapiens) is 128 nM. For the same molecule, half-maximal degradation on HiBiT tagged CK1α (DC50) was put at 66.7 nM.
For `O=C1CCC(N2Cc3cc(C(=O)N[C@@H](c4ccc(F)cc4F)C4CCC4)ccc3C2=O)C(=O)N1` (stereo in doubt) [Compound 42, N-((*R)-cyclobutyl(2,4-difluorophenyl)methyl)-2-(2,6-dioxopiperidin-3-yl)-1-oxoisoindoline-5-carboxamide] the same measures were 40.8%, 57.7%, 420 nM and 1150 nM.
Take `O=C1CCC(N2Cc3cc(C(=O)N[C@H](c4ccc(Cl)cn4)C4CCC4)ccc3C2=O)C(=O)N1` (stereo in doubt) [Compound 76, N—((*S)-(5-chloropyridin-2-yl)(cyclobutyl)methyl)-2-(2,6-dioxopiperidin-3-yl)-1-oxoisoindoline-5-carboxamide]: the “HiBiT GSPT1: Dmax” value on HiBiT tagged GSPT1 amounted to 23.5%. Also, the IC50 with MV4-11 cells is 71 nM. On HiBiT tagged CK1α, it took 219 nM to reach half-maximal degradation (DC50) and the “HiBiT CK1α: Dmax” value worked out at 64.4%.
For the molecule `O=C1CCC(N2Cc3cc(C(=O)N[C@H](c4ccc(F)cn4)C4CCC4)ccc3C2=O)C(=O)N1` (stereo in doubt) [Compound 78, N-((*S)-cyclobutyl(5-fluoropyridin-2-yl)methyl)-2-(2,6-dioxopiperidin-3-yl)-1-oxoisoindoline-5-carboxamide], the Dmax at HiBiT tagged GSPT1 stood at 14.4%. For the same molecule, in the test with MV4-11 cells (Homo sapiens), the IC50 amounted to 176 nM. At HiBiT tagged CK1α, this molecule gave a maximal degradation (Dmax) of 67.2% and a 50% degradation concentration (DC50) of 198 nM.
In turn, `O=C1CCC(N2Cc3cc(C(=O)N[C@H](c4ncc(Cl)cc4Cl)C4CCC4)ccc3C2=O)C(=O)N1` (stereo in doubt) [Compound 79, N-((*S)-cyclobutyl(3,5-dichloropyridin-2-yl)methyl)-2-(2,6-dioxopiperidin-3-yl)-1-oxoisoindoline-5-carboxamide] returned a maximal degradation (Dmax) at HiBiT tagged GSPT1 of 20.4%. Besides, the half-inhibitory concentration (IC50) in the test with MV4-11 cells (Homo sapiens) is 176 nM. Moreover, at HiBiT tagged CK1α, the maximal degradation (Dmax) came out at 65.9% and it took 274 nM to reach half-maximal degradation (DC50).
As for `O=C1CCC(N2Cc3cc(C(=O)N[C@H](c4ncccc4-c4ccc(F)cc4)C4CCC4)ccc3C2=O)C(=O)N1` (stereo in doubt) [Compound 83, N—((*S)-cyclobutyl(3-(4-fluorophenyl)pyridin-2-yl)methyl)-2-(2,6-dioxopiperidin-3-yl)-1-oxoisoindoline-5-carboxamide], the greatest degradation seen (Dmax) at HiBiT tagged GSPT1 was 14.4%; at HiBiT tagged CK1α, 66%. In the test on MV4-11 cells (Homo sapiens), the IC50 is 27 nM. Also, half-maximal degradation on HiBiT tagged CK1α (DC50) was put at 115 nM.
As for `O=C1CCC(N2Cc3cc(C(=O)N[C@H](c4ncccc4Cl)C4(F)CCC4)ccc3C2=O)C(=O)N1` (stereo in doubt) [Compound 87, N-[(*R)-(3-chloro-2-pyridyl)-(1-fluorocyclobutyl)methyl]-2-(2,6-dioxo-3-piperidyl)-1-oxo-isoindoline-5-carboxamide], the values for the Dmax at HiBiT tagged GSPT1 and at HiBiT tagged CK1α were 25% and 59.8%, respectively. Besides, the IC50 in the test on MV4-11 cells (Homo sapiens) was determined as 133 nM. For the same molecule, it took 279 nM to reach half-maximal degradation at HiBiT tagged CK1α (DC50).
Molecule `O=C1CCC(N2Cc3cc(C(=O)N[C@H](c4ncc(Cl)cc4F)C4(F)CCC4)ccc3C2=O)C(=O)N1` (stereo in doubt) [Compound 89, N-((*R)-(5-chloro-3-fluoropyridin-2-yl)(1-fluorocyclobutyl)methyl)-2-(2,6-dioxopiperidin-3-yl)-1-oxoisoindoline-5-carboxamide] had a Dmax at HiBiT tagged GSPT1 of 17.3%. Moreover, the half-inhibitory concentration (IC50) in the test on MV4-11 cells (Homo sapiens) was found to be 198 nM. At HiBiT tagged CK1α, the maximal degradation (Dmax) was 69% and it took 148 nM to reach half-maximal degradation (DC50).
`O=C1CCC(N2Cc3cc(C(=O)NC(c4cccc(F)c4Cl)C4CC4)ccc3C2=O)C(=O)N1` (stereo not shown) [Compound 43, N-((2-chloro-3-fluorophenyl)(cyclopropyl)methyl)-2-(2,6-dioxopiperidin-3-yl)-1-oxoisoindoline-5-carboxamide] had a maximal degradation (Dmax) on HiBiT tagged GSPT1 of 58.2%. On HiBiT tagged CK1α, this molecule gave a maximal degradation (Dmax) of 69.8% and a DC50 of 49.6 nM.
In the case of `N#Cc1cccc(C(NC(=O)c2ccc3c(c2)CN(C2CCC(=O)NC2=O)C3=O)C2CC2)c1` (stereo not shown) [Compound 44, N-((3-cyanophenyl)(cyclopropyl)methyl)-2-(2,6-dioxopiperidin-3-yl)-1-oxoisoindoline-5-carboxamide], the maximal degradation (Dmax) was found to be 22.5% at HiBiT tagged GSPT1 and 49.5% at HiBiT tagged CK1α.
With `O=C1CCC(N2Cc3cc(C(=O)NC(c4c(F)cccc4Cl)C4CC4)ccc3C2=O)C(=O)N1` (stereo not shown) [Compound 45, N-((2-chloro-6-fluorophenyl)(cyclopropyl)methyl)-2-(2,6-dioxopiperidin-3-yl)-1-oxoisoindoline-5-carboxamide], the maximal degradation (Dmax) on HiBiT tagged GSPT1 came out at 42.4%; on HiBiT tagged CK1α, 73.8%. At HiBiT tagged CK1α, this molecule returned a 50% degradation concentration (DC50) of 57.8 nM.
For the molecule `O=C1CCC(N2Cc3cc(C(=O)N[C@H](c4ccc(F)cc4)C4(O)CC4)ccc3C2=O)C(=O)N1` (stereo partly drawn) [Compound 65, 2-(2,6-dioxopiperidin-3-yl)-N—((R)-(4-fluorophenyl)(1-hydroxycyclopropyl)methyl)-1-oxoisoindoline-5-carboxamide], the Dmax on HiBiT tagged GSPT1 was 23.1%. At HiBiT tagged CK1α, this molecule yielded a Dmax of 59.6% and a DC50 of 721 nM.

Usually IC50 stands for the concentration at which inhibition is half-maximal. In general, DC50 refers to the concentration at which degradation of the target reaches its halfway point. For orientation: Dmax means the largest share of the target that was removed.
